Source: patent US20250002450A1, “CATIONIC STEROID COMPOUNDS, METHOD OF OBTAINING THEREOF, FORMULATIONS COMPRISING THEREOF AND THEIR USES” (UNIVERSIDADE DO PORTO, priority 2021, published 2025)
Converted amounts (≈) assume the structure as drawn. Like-named read-outs stand apart in the source and are kept apart here.

Columns and labels:
[1] = system: S. aureus 66/1 (MRSA); assay: Antibacterial MIC/MBC (broth microdilution); assay type: cell-based, Staphylococcus aureus
From the text: (§1) Twelve reference bacterial strains and nine MDR clinically relevant bacterial strains were used in this study. Gram-negative bacteria comprised reference strains E. coli ATCC 25922, K. pneumoniae ATCC 13883, Salmonella enterica serovar Typhimurium CECT 443, P. aeruginosa ATCC 27853, A. baumannii ATCC 19606, C. jejuni ATCC 33560 (ATCC—American Type Culture Collection; CECT—Colección Espanola de Cultivos Tipo); clinical isolates E. coli SA/2, an extended-spectrum β-lactamase (ESBL)-producing strain and P. aeruginosa 33b, a pan-drug-resistant isolate; and animal isolates C. jejuni P5/4, a ciprofloxacin-resistant strain, C. jejuni 4432, C. jejuni 4433, C. jejuni 4448, and E. coli 2252, a COL-resistant strain [42]. Gram-positive strains included S. aureus ATCC 29213, E. faecalis ATCC 29212, S. pyogenes ATCC 19615, and environmental isolates methicillin-resistant S. aureus (MRSA) 66/1 [43], and VAN-resistant enterococci (VRE) E. faecalis B3/101 [44]. Gram-negative fish pathogens Yersinia ruckeri ATCC 29473, Listonella anguillarum ATCC 1924, and Tenacibaculum maritimum ATCC 43397 were also included.
(§2) Strains were kept in Trypto-Casein Soy agar (TSA—Biokar Diagnostics, Allone, Beauvais, France) slants and, before each assay, were sub-cultured in Mueller-Hinton agar (MHA—Biokar Diagnostics, Allone, Beauvais, France). Y. ruckeri ATCC 29473 and L. anguillarum ATCC 1924 were kept in Nutrient Agar (Condalab, Madrid, Spain) and T. maritimum ATCC 43397 was kept in TMM agar (Condalab, Madrid, Spain), and were sub-cultured in the respective culture media before each assay. For S. pyogenes ATCC 19615, CAMHB was supplemented with 3.75% lysed horse blood (LBH—Oxoid, Basingstoke, England), whereas for C. jejuni it was supplemented with 2.5% LHB. Colony-forming unit counts of the inoculum were conducted to determine the initial inoculum size (which should be approximately 5×10^5 CFU/mL). Sterility and growth controls were included in each assay. The 96-well U-shaped untreated polystyrene microtiter plates were incubated for 20 h at 37 degrees C. (42 degrees C. for C. jejuni, in a microaerophilic atmosphere) and the minimal inhibitory concentration (MIC) was determined as the lowest concentration of compound that prevented visible growth. The minimal bactericidal concentration (MBC) was determined by spreading 100 μL of the content of the wells with no visible growth on MH plates. The MBC was determined as the lowest concentration of compound that killed 99.9% of the initial inoculum after overnight incubation at 37 degrees C. Two independent assays were performed for reference and MDR strains.
(§3) An initial screening of the antibacterial activity of the compounds was performed by the Kirby-Bauer disk diffusion method, as recommended by the Clinical and Laboratory Standards Institute (CLSI). Briefly, sterile 6 mm blank paper disks (Oxoid, Basingstoke, England) impregnated with 15 μg of each compound were placed on inoculated MH agar plates. A blank disk with dimethylsulfoxide (DMSO) was used as a negative control. MH inoculated plates were incubated for 18-20 h at 37 degrees C. At the end of incubation, the inhibition halos where measured. The MIC was used to determine the antibacterial activity of each compound, in accordance with the recommendations of the CLSI. Two-fold serial dilutions of the compounds were prepared in Mueller-Hinton Broth 2 (MHB2—Sigma-Aldrich, St. Louis, MO, USA) within the concentration range of 0.062-64 μg/mL. CTX ranging between 0.031-16 μg/mL was used as a control. Sterility and growth controls were included in each assay. Purity checks and colony counts of the inoculum suspensions were also performed in order to ensure that the final inoculum density closely approximates the intended number (5×10^5 CFU/mL). The MIC was determined as the lowest concentration of compound that inhibited growth of the bacteria. The MBC was assessed by spreading 10 μL of culture collected from wells showing no visible growth on MH agar plates. […]

[2] = system: Escherichia coli ATCC 25922; assay: Antibacterial MIC/MBC (broth microdilution); assay type: cell-based; conditions: for MBC / MIC: Escherichia coli ATCC 25922
From the text: as §1, §2, §3

[3] = system: Campylobacter jejuni ATCC 33560; assay: Antibacterial MIC/MBC (broth microdilution); assay type: cell-based; conditions: for MBC / MIC: Campylobacter jejuni ATCC 33560
From the text: as §1, §2, §3

[4] = system: Acinetobacter baumannii ATCC 19606; assay: Antibacterial MIC/MBC (broth microdilution); assay type: cell-based; conditions: for antibacterial activity (in words): A. baumannii ATCC 19606; for MBC / MIC: Acinetobacter baumannii ATCC 19606
From the text: as §1, §2, §3

[5] = system: Pseudomonas aeruginosa ATCC 27853; assay: Antibacterial MIC/MBC (broth microdilution); assay type: cell-based; conditions: for MBC / MIC: Pseudomonas aeruginosa ATCC 27853
From the text: as §1, §2, §3

[6] = system: Enterococcuss faecalis ATCC 29212; assay: Antibacterial MIC/MBC (broth microdilution); assay type: cell-based, Enterococcus faecalis; conditions: for antibacterial activity (in words): E. faecalis ATCC 29212; for MBC / MIC: Enterococcuss faecalis ATCC 29212
From the text: as §1, §2, §3

[7] = system: E. faecalis B3/101 (VRE); assay: Antibacterial MIC/MBC (broth microdilution); assay type: cell-based, Enterococcus faecalis; conditions: for antibacterial activity (in words): E. faecalis B3/101; for MBC / MIC: E. faecalis B3/101 (VRE)
From the text: as §1, §2, §3

[8] = system: C. jejuni 4432; assay: Antibacterial MIC/MBC (broth microdilution); assay type: cell-based, Campylobacter jejuni
From the text: as §1, §2, §3

[9] = system: C. jejuni P5/4; assay: Antibacterial MIC/MBC (broth microdilution); assay type: cell-based, Campylobacter jejuni
From the text: as §1, §2, §3

[10] = system: C. jejuni 4433; assay: Antibacterial MIC/MBC (broth microdilution); assay type: cell-based, Campylobacter jejuni
From the text: as §1, §2, §3

[11] = system: C. jejuni 4448; assay: Antibacterial MIC/MBC (broth microdilution); assay type: cell-based, Campylobacter jejuni
From the text: as §1, §2, §3

[12] = system: Tenacibaculum maritimum ATCC 43397; assay: Antibacterial disk diffusion; assay type: cell-based
From the text: as §1, §2, §3

[13] = system: E. coli 2252 (COL-resistant); assay: Antibacterial MIC/MBC (broth microdilution); assay type: cell-based, Escherichia coli
From the text: as §1, §2, §3

[14] = system: E. coli SA/2 (ESBL); assay: Antibacterial MIC/MBC (broth microdilution); assay type: cell-based, Escherichia coli
From the text: as §1, §2, §3

[15] = system: Streptococcuss pyogenes ATCC 19615; assay: Antibacterial MIC/MBC (broth microdilution); assay type: cell-based, Streptococcus pyogenes; conditions: for MBC / MIC: Streptococcuss pyogenes ATCC 19615
From the text: as §1, §2, §3

[16] = Campylobacter jejuni, read-out: MBC
[17] = Campylobacter jejuni, read-out: MIC

C[C@H](CCC(=O)N1CCNCC1)[C@H]1CC[C@H]2[C@@H]3CC[C@@H]4C[C@H](O)CC[C@]4(C)[C@H]3C[C@H](O)[C@]12C [Compound 9, (R)-4-((3R,5R,8R,9S,10S,12S,13R,14S,17R)-3,12-dihydroxy-10,13-dimethylhexadecahydro-1H-cyclopenta[a]phenanthren-17-yl)-1-(piperazin-1-yl) pentan-1-one]
MBC ([1]; Staphylococcus aureus, read-out: MBC): 64 µg/mL (≈ 139 µM) | MIC ([1]; Staphylococcus aureus, read-out: MIC): 64 µg/mL (≈ 139 µM) | MBC ([2]; ATCC25922, read-out: MBC): > 64 µg/mL | MIC ([2]; ATCC25922, read-out: MIC): > 64 µg/mL | MBC ([3]; ATCC33560, read-out: MBC): > 64 µg/mL | MIC ([3]; ATCC33560, read-out: MIC): > 64 µg/mL | antibacterial activity (in words) [4]: displayed an inhibitory effect | MBC ([4]; ATCC19606, read-out: MBC): 64 µg/mL (≈ 139 µM) | MIC ([4]; ATCC19606, read-out: MIC): 64 µg/mL (≈ 139 µM) | MBC ([5]; ATCC27853, read-out: MBC): > 64 µg/mL | MIC ([5]; ATCC27853, read-out: MIC): > 64 µg/mL | antibacterial activity (in words) [6]: exhibited antimicrobial activity | MBC ([6]; Enterococcus faecalis, ATCC29212, read-out: MBC): 64 µg/mL (≈ 139 µM) | MIC ([6]; Enterococcus faecalis, ATCC29212, read-out: MIC): 64 µg/mL (≈ 139 µM) | antibacterial activity (in words) [7]: displayed the same effect | MBC ([7]; Enterococcus faecalis, read-out: MBC): > 64 µg/mL | MIC ([7]; Enterococcus faecalis, read-out: MIC): 32 µg/mL (≈ 69.5 µM) | MBC [8, 16]: > 64 µg/mL | MIC [8, 17]: > 64 µg/mL | MBC [9, 16]: > 64 µg/mL | MIC [9, 17]: > 64 µg/mL | MBC [10, 16]: > 64 µg/mL | MIC [10, 17]: > 64 µg/mL | MBC [11, 16]: > 64 µg/mL | MIC [11, 17]: > 64 µg/mL | Inhibition zone diameter (disk diffusion) ([12]; Tenacibaculum maritimum ATCC 43397, footnote *): 9 mm | MBC ([13]; Escherichia coli, E. coli 2252 (COL-resistant), read-out: MBC): > 64 µg/mL | MIC ([13]; Escherichia coli, E. coli 2252 (COL-resistant), read-out: MIC): > 64 µg/mL | MBC ([14]; Escherichia coli): > 64 µg/mL | MIC ([14]; Escherichia coli): > 64 µg/mL | MBC ([15]; Streptococcus pyogenes, ATCC19615, read-out: MBC): > 64 µg/mL | MIC ([15]; Streptococcus pyogenes, ATCC19615, read-out: MIC): > 64 µg/mL

C[C@H](CCC(=O)NCCN)[C@H]1CC[C@H]2[C@@H]3CC[C@@H]4C[C@H](O)CC[C@]4(C)[C@H]3C[C@H](O)[C@]12C [Compound 1, (R)—N-(2-aminoethyl)-4-((3R,5R,8R,9S,10S,12S,13R,14S,17R)-3,12-dihydroxy-10,13-dimethylhexadecahydro-1H-cyclopenta[a]phenanthren-17-yl) pentanamida]
MBC [1]: 32 µg/mL (≈ 73.6 µM) | MIC [1]: 32 µg/mL (≈ 73.6 µM) | antibacterial activity (in words) ([2]; E. coli ATCC 25922): active | MBC [2]: 64 µg/mL (≈ 147 µM) | MIC [2]: 32 µg/mL (≈ 73.6 µM) | antibacterial activity (in words) ([3]; C. jejuni ATCC 33560): showed antimicrobial activity | MBC [3]: 64 µg/mL (≈ 147 µM) | MIC [3]: 64 µg/mL (≈ 147 µM) | antibacterial activity (in words) [4]: displayed an inhibitory effect | MBC [4]: 64 µg/mL (≈ 147 µM) | MIC [4]: 64 µg/mL (≈ 147 µM) | antibacterial activity (in words) ([5]; P. aeruginosa ATCC 27853): active | MBC [5]: 64 µg/mL (≈ 147 µM) | MIC [5]: 64 µg/mL (≈ 147 µM) | antibacterial activity (in words) [6]: exhibited antimicrobial activity | MBC [6]: 32 µg/mL (≈ 73.6 µM) | MIC [6]: 16 µg/mL (≈ 36.8 µM) | antibacterial activity (in words) [7]: displayed the same effect | MBC [7]: 32 µg/mL (≈ 73.6 µM) | MIC [7]: 32 µg/mL (≈ 73.6 µM) | MBC [8]: 64 µg/mL (≈ 147 µM) | MIC [8]: 64 µg/mL (≈ 147 µM) | antibacterial activity (in words) [8]: showed antimicrobial activity | MBC [9]: 32 µg/mL (≈ 73.6 µM) | MIC [9]: 32 µg/mL (≈ 73.6 µM) | antibacterial activity (in words) [9]: active | MBC [10]: 64 µg/mL (≈ 147 µM) | MIC [10]: 64 µg/mL (≈ 147 µM) | antibacterial activity (in words) [10]: showed antimicrobial activity | MBC [11]: 64 µg/mL (≈ 147 µM) | MIC [11]: 64 µg/mL (≈ 147 µM) | antibacterial activity (in words) [11]: showed antimicrobial activity | Disk diffusion ([12]; Tenacibaculum maritimum ATCC 43397): 20 mm | antibacterial activity (in words) ([13]; E. coli 2252): active | MIC ([13]; E. coli 2252 (COL-resistant)): 64 µg/mL (≈ 147 µM) | antibacterial activity (in words) ([14]; E. coli SA/2): active | MBC ([14]; E. coli SA/2 (ESBL)): 32 µg/mL (≈ 73.6 µM) | MIC ([14]; E. coli SA/2 (ESBL)): 32 µg/mL (≈ 73.6 µM) | antibacterial activity (in words) ([15]; S. pyogenes ATCC 19615): active | MBC [15]: 64 µg/mL (≈ 147 µM) | MIC [15]: 64 µg/mL (≈ 147 µM)
